Data from patent publication US10561736B1, “Apoptosis inhibitor formulations for prevention of hearing loss” (Spiral Therapeutics, Inc., priority 2019, dated 2020).
In brackets after ≈: the same amount, converted by molar mass. Entries after “also recorded” stand apart in the source; their conditions may differ. Where two headings read alike, the source gives them in different places.

What was measured:
[1] = tested on: ion channels, including hERG potassium channels; assay: effects on ion channels in CHO and HEK 293 cells; format: cell-based
Text: Torsadogenic refers to the development of torsade de Pointes (TdP) arrythimias.

[2] = tested on: caspase 3; assay: CisPt-induced caspase 3 activation in HEI-OC1 cells; format: cell-based
Protocol: To identify off-target activities of LPT99, its selectivity against a panel of receptors (44 G-protein-coupled receptors [GPCR] and 4 non-GPCR), 4 ion channels, and 3 transporters were analyzed. The cell line, HEI-OC1 (house ear institute organ of Corti 1), which expresses several characteristic markers of the organ of Corti sensory cells (Kalinec, et al., Audiol. Neurootol. 2003, 8(4), 177-89), was used to evaluate the efficacy of LPT99 in preventing apoptosis due to […]. Cells were pre-incubated with LPT99, followed by […] for 24 hours.

[3] = metabolic stability in microsomal and S9 hepatic fractions; format: in vitro ADME; details: after 1 hour
Text: The metabolic profile and stability of LPT99 was characterized in human, dog, rabbit, rat, and mouse microsomal and S9 fractions, and in human cytosolic fractions.

[4] = in vitro release assay from P407 hydrogel through dialysis membrane into artificial perilymph; format: physicochemical; details: 3500 Da dialysis membrane, 37° C.
Protocol: The in vitro release assay was performed using cellulose dialysis membranes of 3500 Da (OrDial D35-MWCO 3500, Orange Scientific) to simulate the round window membrane, located between the middle ear and the inner ear, as it is the first barrier for the drug to reach the inner ear where it will exert its pharmacological action. (See FIG. 1) Artificial perilymph (NaCl 137 mM, KCl 5 mM, CaCl2 2 mM, MgCl2 1 mM and NaHCO3 1 mM) was used to simulate the environment inside the inner ear, since this is the liquid that interact with the drug after crossing the round window. The assay was performed at 37° C., continuing with the simulation of ear conditions.
To prepare the release assay, ten (10) mL of the LPT99 loaded hydrogel was placed inside a 3500 Da dialysis membrane, the membrane with the hydrogel was introduced into a 100 ml borosilicate glass lab bottle and 30 ml of artificial perilymph was added. All samples were kept under magnetic stirring at 37° C. […]
Samples were taken at different time points (1 h, 3 h, 6 h, 1 day, 2 days, 3 days, 6 days, 7 days, 8 days, 9 days, 10 days, 13 days, 14 days and 15 days) at which time 5 mL were withdrawn with a graduated glass pipette and replaced with equivalent volume of artificial perilymph. The collected samples were analyzed to determine the amount of drug released from the hydrogel at each time point. […]

[5] = tested on: bacterial reverse mutation; assay: GLP in vitro bacterial reverse mutation assay (Ames test); format: cell-based
[6] = tested on: CisPt-induced hearing loss; assay: model of CisPt-induced hearing loss in rats; format: in vivo; details: rat
Protocol: A model of CisPt-induced hearing loss in rats was evaluated to test the in vivo efficacy of LPT99. Ototoxicity was induced by intraperitoneal (IP) slow infusion of CisPt at doses that compared with those used in human preventions (eg, 10 mg/kg). LPT99 was administered IT 30 minutes before CisPt was given.
The protective effect of LPT99 was evaluated 3 days after CisPt administration by functional measures, such as auditory brainstem response (ABR) threshold shift, DPOAE, and expression of biomarkers of apoptosis in cochlea and cytocochleograms.

[7] = non-GLP maximum tolerated dose (MTD) toxicity study, IP; details: rat, in vivo, Sprague-Dawley rats
Protocol: A functional observation battery was conducted with LPT99 administered via IP (intraperitoneal) injection in Sprague-Dawley rats. The study was preceded by a non-GLP maximum tolerated dose (MTD) toxicity study, via the same administration and test system, which determined the MTD of LTP99 to be 1000 mg/kg. LPT99 was suspended in vehicle [0.5% w/v methylcellulose and 0.1% v/v TWEEN®80 in Milli-Q water] and administered intraperitoneally to Sprague-Dawley rats as a single dose at the doses of 100 (low—G2/G2TK), 300 (mid—G3/G3TK), and 750 (high—G4/G4TK) mg/kg body weight. The rats in vehicle control groups (G1/G1TK) received the vehicle alone. The dose volume administered was at an equivolume of 10 mL/kg body weight for all groups.
A GLP acute systemic toxicity study was conducted with LPT99 administered via IP injection in Sprague-Dawley rats. The acute systemic toxicity study was preceded by a non-GLP maximum tolerated dose (MTD) toxicity study, via the same administration and test system, which determined the MTD of LTP99 to be 1000 mg/kg.

[8] = solubility; format: physicochemical
[9] = tested on: guinea pigs; assay: dermal sensitization main study (Buehler test); format: in vivo, guinea pig; details: topical 797 μM
Protocol: A GLP-compliant dermal sensitization study was conducted with LPT99 in guinea pigs.
The test article, LPT99, was in a neutral-pH, buffered, isotonic solution containing a thermoreversible compound.
The main study consisted of 2 groups of 20 or 10 guinea pigs. […] Group 2 was 5 male and 5 female animals that were not dosed with LPT99 (Group 2) during the induction phase and served as naïve controls; Group 2 was challenged with LPT99 on Day 28. LPT99 was topically administered to the skin in the shaved scapula area in a volume of 50 μL on Study Days 0, 7, and 14 (induction doses), and on Day 28 (challenge dose). These observations and measurements were performed: Clinical observations (daily), Body weights (weekly), Draize scoring (24 and 48 hours after bandage removal on Days 29 and 30), Primary Dermal Irritation Index (PDII) scoring of extent of irritation according to the scale in. The PDII (post-challenge) was calculated for the test article or vehicle by dividing the sum of the Total Irritation Score by the number of observations (e.g., 3 days×6 animals=18 (number of observations).

In the case of `COc1ccc2[nH]cc(CCNC(=O)CC3C(=O)N(CCc4ccc(Cl)cc4Cl)CC(=O)N3CCc3cccs3)c2c1` (stereo not drawn) [LPT99, 2-(4-(2,4-dichlorophenethyl)-3,6-dioxo-1-(2-(thiophen-2-yl)ethyl)piperazin-2-yl)-N-(2-(5-methoxy-1H-indol-3-yl)ethyl)acetamide], the “torsadogenic / cardiotoxic risk” value [1] is reported as “low torsadogenic risk; also recorded: low cardiotoxic risk”, the “caspase 3 activation in the cellular model” value ([2]; cellular model of CisPt-induced apoptosis) is reported as “reduced caspase-3 activation” and the IC50 ([2]; read-out: 50% inhibitory concentration (IC50) for caspase 3, HEI-OC1 cells pre-incubated with LPT99, then CisPt for 24 hours) is reported as 5.2 ± 1.6 µM. For the same compound, the metabolized ([3]; dog microsomal and S9 hepatic fractions) was greater than 90%, the metabolized ([3]; human microsomal and S9 hepatic fractions) was greater than 90% and the metabolized ([3]; mouse microsomal and S9 hepatic fractions) was greater than 90%. For the same compound, the metabolized ([3]; rabbit microsomal and S9 hepatic fractions) was greater than 90%, the metabolized ([3]; rat microsomal and S9 hepatic fractions) was greater than 90% and the “LPT99 release from hydrogel over time” value [4] was “released in effective amounts for at least one week”. For the same compound, the “genetic toxicity (Ames test)” value [5] was “no evidence of genetic toxicity”, the “ABR threshold shift induced by CisPt” value ([6]; IT LPT99-CD, 3 days after administration, especially 20, 28, or 40 kHz) was “attenuated the ABR threshold shift” and the “auditory threshold shifts vs CisPt control group” value ([6]; IT LPT99 in hydrogel plus CisPt) was “significantly lower auditory threshold shifts”. For the same compound, the “protection against CisPt-induced hearing loss” value ([6]; IT LPT99 solution (hydrogel), 63 μg/mL [100 μM] and 300 μg/mL [478 μM]) was “protected against CisPt-induced hearing loss; also recorded: protective effects against CisPt-induced hearing loss”, the MTD [7] was 1000 mg/kg and the “increase in drug solubility” value ([8]; 14.7 wt/wt % vehicle vs aqueous) was 332 fold. For the same compound, the solubility ([8]; aqueous (not further specified), read-out: aqueous solubility) was 2.4 µM (≈ 1.51 µg/mL), the solubility ([8]; aqueous with cosolvent or surfactant or cyclodextrin, 14.7 wt/wt %, read-out: solubility in 14.7 wt/wt % vehicle) was no less than 797 µM and the “Irritant Category” value [9] was “nonirritant (0)”. The “mortality, clinical observations, body weights, or Draize scores” value [9] was “No test-article-related changes”, the “Draize scores after the challenge dose” value ([9]; 24 or 48 hours) was “No Draize scores were >0” and the PDII score ([9]; post-challenge) was 0.
